For this experiment, the system named is chronic occipital-cervical pain. Put plainly: Pain intensity (numerical rating scale, NRS) in a chronic pain patient during drug treatment. In kind it is in vivo, human. The settings on record: for Effect on pain of the chronic pain patient (in words): single chronic pain patient, oral administration, overall conclusion. On the procedure:
Morphine, fluvoxamine, aripiprazole, and other drugs were administered for about 11 months to a patient who was diagnosed as a chronic pain sufferer with chronic occipital-cervical pain that had continued for ten years or more. The intensity of the pain in the patients' occipital-cervical region (neck) was evaluated over time.
The intensity of pain was evaluated using a numerical rating scale (NRS) in which pain was orally reported on an 11-step scale (0 to 10). This evaluation method numerically expresses (quantifies) the degree of pain on a scale of 0 (no pain) to 10 (worst conceivable pain). This method provides a good reflection of the degree of pain of a patient before and after treatment.
From the 4th week of the first month, in addition to morphine, oral administration of fluvoxamine (Depromel tablets; produced by Meiji Seika Pharma Co., Ltd.) in a dose of 50 mg/day was started.
Then, from the 4th week of the 4th month, aripiprazole (Abilify tablets; produced by Otsuka Pharmaceutical Co., Ltd.) was orally administered in a dose of 3 mg/day. […] Furthermore, even when the administration of morphine was stopped from the 8th month, the NRS value remained at 0.
Thereafter, when the dose of aripiprazole (Abilify tablets; produced by Otsuka Pharmaceutical Co., Ltd.) was increased to 9 mg/day after the 4th week of the 9th month, and further increased to 12 mg/day after the 4th week of the 10th month, the NRS value was 0, and no change was observed.

The structures appear in SMILES notation. Structures can show the parent of a compound that is named as a salt.

Turning to `COCCCC/C(=N\OCCN)c1ccc(C(F)(F)F)cc1` [fluvoxamine], the “Effect on pain of the chronic pain patient (in words)” value (shortened to “Effect on pain”) is listed as “the pain was not relieved at all”.
On to `O=C1CCc2ccc(OCCCCN3CCN(c4cccc(Cl)c4Cl)CC3)cc2N1` [aripiprazole, 7-{4-[4-(2,3-dichlorophenyl)-1-piperazinyl]butoxy}-3,4-dihydrocarbostyril], for which the “Effect on pain” value is “could dramatically reduce the pain”. The NRS value (aripiprazole 3 mg/day oral from 4th week of 4th month, first week of the 5th month) is 1. The NRS value (aripiprazole 3 mg/day oral, from the second week of the 6th month) is reported as 0. Under “aripiprazole increased to 9 mg/day (after 4th week of 9th month) and 12 mg/day (after 4th week of 10th month)”, this compound had an NRS value of 0. For the same compound, for the setting “aripiprazole, after morphine was stopped from the 8th month”, the NRS value came out at 0.
Take `CN1CC[C@]23c4c5ccc(O)c4O[C@H]2[C@@H](O)C=C[C@H]3[C@H]1C5` [morphine hydrochloride tablets]: the “Effect on pain” value was “the pain was not relieved”.
